Reference: US5071643A, “Solvent system enhancing the solubility of pharmaceuticals for encapsulation” (R. P. Scherer Corporation, priority 1987, dated 1991)

Legend:
[1] = Appearance of ibuprofen mixtures in PEG 400 with sodium or potassium hydroxide (visual inspection); format: physicochemical
Procedure: Mixtures were prepared in 10 g quantities by dispersing the acidic pharmaceutical agent in polyethylene glycol or polyethylene glycol and glycerin or polyethylene glycol and polyvinylpyrrolidone or polyethylene glycol, glycerin, and polyvinylpyrrolidone. Aqueous solutions of hydroxide were then added.

[2] = Solubility of the basic drug thioridazine in PEG 400 in presence and absence of hydrogen ion

Row | Compound | Appearance (Room temp) ([1]; 200 mg in 200 mg PEG 400, NaOH 0.1 M/E, water 1.5 wt %, slight ppt) | Appearance (Room temp) ([1]; 200 mg in 200 mg PEG 400, NaOH 0.2 M/E, water 2.8 wt %) | Appearance (Room temp) ([1]; 200 mg in 200 mg PEG 400, NaOH 0.3 M/E, water 4.1 wt %) | Appearance (Room temp) ([1]; 200 mg in 200 mg PEG 400, NaOH 0.4 M/E, water 5.2 wt %) | Appearance (Room temp) ([1]; 200 mg in 200 mg PEG 400, NaOH 0.5 M/E, water 6.6 wt %, solid admixture) | precipitation in presence of sodium hydroxide ([1]; PEG 400, 0.5 or more mole equivalents NaOH) | precipitation in presence of potassium hydroxide ([1]; PEG 400, 1.0 mole equivalents KOH, even at 4° C.) | RESULT at 5° C. ([2]; FORMULA I, Hydrochloric Acid 0.0 mg) | RESULT at 5° C. ([2]; FORMULA II, Hydrochloric Acid 2.4 mg)
1 | CC(C)Cc1ccc(C(C)C(=O)O)cc1 (stereo not drawn) [Ibuprofen, ibuprofen] | Insoluble | Soluble | Soluble | Soluble | Insoluble | precipitation occurs | no precipitation occurs |  | 
2 | CSc1ccc2c(c1)N(CCC1CCCCN1C)c1ccccc1S2 (stereo not drawn) [Thioridazine, thioridazine] |  |  |  |  |  |  |  | INSOLUBLE | SOLUBLE
